PMC10439028, “SGLT5 is the renal transporter for 1,5-anhydroglucitol, a major player in two rare forms of neutropenia” (Cellular and Molecular Life Sciences: CMLS, 2023)
Entries after “also recorded” stand apart in the source; their conditions may differ. Where two headings read alike, the source gives them in different places.

How the values were obtained:
Type in all cases: cell-based
human SGLT5 [1] = target: T1, human SGLT5 (Homo sapiens, UniProt A0PJK1); experiment: Inhibition of 10 µM radiolabelled 1,5-AG transport in HEK293T cells overexpressing human SGLT5
T1 construct: expressed in transfected cells
T1 sequence (A0PJK1 1-596): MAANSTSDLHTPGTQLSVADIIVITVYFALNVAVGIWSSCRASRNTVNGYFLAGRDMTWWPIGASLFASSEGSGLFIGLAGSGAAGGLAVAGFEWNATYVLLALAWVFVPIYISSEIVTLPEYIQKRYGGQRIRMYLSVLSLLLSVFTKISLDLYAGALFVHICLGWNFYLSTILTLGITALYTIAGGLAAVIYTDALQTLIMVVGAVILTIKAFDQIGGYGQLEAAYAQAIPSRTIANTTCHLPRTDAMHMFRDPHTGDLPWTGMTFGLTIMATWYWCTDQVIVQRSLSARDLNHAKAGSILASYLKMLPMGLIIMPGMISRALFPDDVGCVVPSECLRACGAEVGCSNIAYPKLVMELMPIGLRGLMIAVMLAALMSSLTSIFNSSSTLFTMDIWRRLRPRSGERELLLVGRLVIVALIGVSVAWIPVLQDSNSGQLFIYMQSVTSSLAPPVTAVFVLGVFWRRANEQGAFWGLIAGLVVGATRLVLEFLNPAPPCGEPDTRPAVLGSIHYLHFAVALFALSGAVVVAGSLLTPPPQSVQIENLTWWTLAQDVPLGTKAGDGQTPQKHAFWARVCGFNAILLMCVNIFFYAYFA
Experimental: (§1) For a typical transporter experiment we proceeded as follows. […] To minimize cell loss during the various washing steps in the radioactive uptake experiments, the wells where the cells were seeded were previously coated with poly- D-lysine, which improved their adhesion to the plastic surface of the wells. For this, each well of the 24-well plates was treated with 200 µl of a 0.01% poly-L-lysine solution for 10 min, washed 3 times with 1 ml of sterilized water and left to dry for 2 h. Only then could the 24-well plates be seeded with the appropriate cell lines and cultured overnight at 37 °C in 5% CO2.
(§2) On day two, the radioactive uptake assay could be performed. The cell culture media was removed by aspiration and cells were incubated for 20 min at 37 °C and 5% CO2 with a basal medium (10 mM HEPES, pH 7.4, 1 mM CaCl2, 1 mM MgCl2, 2 mM KCl) containing 140 mM choline chloride to deplete intracellular […] ions. This was subsequently replaced with the uptake medium (basal medium + 140 mM NaCl, 25 μM cytochalasin B, 1 mg/ml BSA) containing either radioactive U-[^14C]-mannose (15,000 cpm/well) or 2-[^3H]-1,5-AG (30,000 cpm/well) and respectively, non-radioactive mannose or 1,5-AG, at the required concentration in the experiment. Importantly, when measuring the transport of mannose, the uptake media also contained 0.5 mM glucose. This resulted from the need to reduce the background transport of mannose in control HEK293T cells in order to optimize the transport assay for this sugar in our model cell lines. Consequently, after testing various inhibitors (Supplementary Fig. 1), 0.5 mM glucose + 25 µM cytochalasin B appeared as the best combination to decrease efficiently the endogenous transport of mannose in control cells without affecting the transport of mannose in model cell lines overexpressing SGLT4 and SGLT5. Therefore in the radioactive uptake assays for mannose, the uptake medium was: basal uptake medium + 140 mM NaCl, 25 μM cytochalasin B, 0.5 mM glucose and 1 mg/ml BSA to which we added U-[^12C + ^14C]-mannose as described above.
(§3) Once the uptake medium was added to the cells, the plates were incubated at 37 °C in 5% CO2 during the required time. […] In each experiment, the transport activities were calculated after subtracting a “blank” value, corresponding to the radioactivity in the appropriate control cells (HEK293T cells that were stably or transiently transfected with one of the parent plasmids pEF6/MycHisA, pEF6HisB, pUB82 or pUB83 with no inserted cDNA) that were analyzed in parallel.
(§4) The transport experiments to study the specificity of SGLT4 or SGLT5, were performed in the presence of 10 µM U-[^14C + ^12C]-mannose (for SGLT4) or 2-[^3H + ^1H]-1,5-AG (for SGLT5) and increasing concentrations of various sugars tested. The transport experiments to study the inhibition of empagliflozin, dapagliflozin or remogliflozin, on the transport of 1,5-AG by SGLT5 or its variants were performed in the presence of 10 µM 2-[^3H + ^1H]-1,5-AG and increasing concentrations of the various gliflozins tested.

human SGLT5 [2] = target: T1, human SGLT5; experiment: Radioactive uptake assay (saturation kinetics) in HEK293T cells stably overexpressing human SGLT5-iso2; conditions: for hSGLT5 Vmax: transport of the labelled substrate, Fig. 2B
From the text: (§5) This assay was used to study (1) the transport of 1,5-AG or mannose by the HEK293T model cell lines that stably overexpressed the various transporters or by the transiently transfected HEK293T cells using JetPEI® as a transfection agent prepared as described above and (2) the substrate specificity of each transporter.
as §1
(§6) On day two, the radioactive uptake assay could be performed. The cell culture media was removed by aspiration and cells were incubated for 20 min at 37 °C and 5% CO2 with a basal medium (10 mM HEPES, pH 7.4, 1 mM CaCl2, 1 mM MgCl2, 2 mM KCl) containing 140 mM choline chloride to deplete intracellular […] ions. This was subsequently replaced with the uptake medium (basal medium + 140 mM NaCl, 25 μM cytochalasin B, 1 mg/ml BSA) containing either radioactive U-[^14C]-mannose (15,000 cpm/well) or 2-[^3H]-1,5-AG (30,000 cpm/well) and respectively, non-radioactive mannose or 1,5-AG, at the required concentration in the experiment. […]
as §3

human SGLT4 [3] = target: T2, human SGLT4 (Homo sapiens, UniProt Q2M3M2); experiment: Radioactive uptake assay (saturation kinetics) in HEK293T cells stably overexpressing human SGLT4
T2 construct: expressed in transfected cells
T2 sequence (Q2M3M2 1-681): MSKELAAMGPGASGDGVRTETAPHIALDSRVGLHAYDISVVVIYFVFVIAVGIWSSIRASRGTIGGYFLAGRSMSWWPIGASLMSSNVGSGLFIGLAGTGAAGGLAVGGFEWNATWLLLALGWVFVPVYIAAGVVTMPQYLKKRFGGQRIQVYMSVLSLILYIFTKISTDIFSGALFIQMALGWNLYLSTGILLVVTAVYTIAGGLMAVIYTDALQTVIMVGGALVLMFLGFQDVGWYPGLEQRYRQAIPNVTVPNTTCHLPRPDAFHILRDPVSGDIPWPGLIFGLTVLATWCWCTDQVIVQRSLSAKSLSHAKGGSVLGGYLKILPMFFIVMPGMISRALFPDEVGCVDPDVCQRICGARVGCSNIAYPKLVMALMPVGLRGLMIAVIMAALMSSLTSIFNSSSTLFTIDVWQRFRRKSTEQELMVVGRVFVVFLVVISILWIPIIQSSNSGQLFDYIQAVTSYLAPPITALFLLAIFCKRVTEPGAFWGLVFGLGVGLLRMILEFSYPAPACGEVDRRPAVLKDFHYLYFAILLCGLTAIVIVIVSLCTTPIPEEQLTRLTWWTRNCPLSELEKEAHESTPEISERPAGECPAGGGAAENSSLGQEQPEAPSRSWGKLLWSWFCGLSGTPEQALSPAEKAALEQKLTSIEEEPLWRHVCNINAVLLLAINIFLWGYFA
From the text: as §5, §1, §6, §3

human SGLT4 [4] = target: T2, human SGLT4; experiment: Inhibition of 10 µM radiolabelled mannose transport in HEK293T cells overexpressing human SGLT4; conditions: substrate 10 μM mannose
Experimental: as §1, §2, §3, §4

[5] = substrate 10 μM 1,5-AG, unlabelled sugars, Fig. 3C, read-out: hSGLT5 IC50

Compound	IC50 (human SGLT5 [1]; 10 µM 2-[1H+3H]-1,5-AG, Supplementary Fig. 7, read-out: IC50 for 1,5-AG, SGLT5-WT)	preference of 1,5-AG over glucose, difference in Ki (human SGLT5 [1]; SGLT5)	IC50 (human SGLT5 [1]; [5])	Vmax (human SGLT5 [2]; hSGLT5 WT, Table 1 experiments)	hSGLT5 Vmax (human SGLT5 [2])	transport of 1,5-AG by human SGLT4 (human SGLT4 [3]; concentrations in the physiological range)	hSGLT4 inhibition with 10 mM inhibitor (human SGLT4 [4]; 10 mM inhibitor)	SGLT4 better than SGLT5 to transport mannose (human SGLT4 [3]; assuming similar expression of the transporters in the cell lines)	hSGLT4 Vmax (human SGLT4 [3]; transport of the labelled substrate, Fig. 2B)	IC50 (human SGLT4 [4]; Fig. 3C, read-out: hSGLT4 IC50)	IC50 (human SGLT5 [1]; 10 µM 2-[1H+3H]-1,5-AG, Fig. 5C, read-out: IC50 for SGLT5-mediated 1,5-AG transport (gliflozins))
OC[C@H]1OC[C@H](O)[C@@H](O)[C@@H]1O [1,5-AG, 1,5-anhydroglucitol]	162 µM	20 fold	167 µM	17.3 ± 0.3 pmol/min/10^5cells	14.1 ± 0.8 pmol/min/10^5 cells	does not transport; also recorded: undetectable	no inhibition				
OC[C@H]1OC(O)[C@@H](O)[C@@H](O)[C@@H]1O (stereo partly shown) [Mannose, mannose]			380 µM		44.7 ± 12.4 pmol/min/10^5 cells			approximately tenfold better	16.6 ± 0.5 pmol/min/10^5 cells	125 µM	
OC[C@H]1O[C@@H](c2ccc(Cl)c(Cc3ccc(O[C@H]4CCOC4)cc3)c2)[C@H](O)[C@@H](O)[C@@H]1O [empagliflozin]											0.7 µM
